According to US11795177B2, “Substituted quinoline analogs as aldehyde dehydrogenase 1A1 (ALDH1A1) inhibitors” (THE UNITED STATES OF AMERICA, AS REPRESENTED BY THE …, priority 2017, dated 2023):
Where a name gives a salt, the structure may show the parent alone.

Tests used:
[1] = target: T1, ALDH1A1 enzyme (Homo sapiens, UniProt P00352); assay: ALDH1A1 enzymatic assay (in vitro); assay type: biochemical; conditions: ALDH1A1 enzyme 20 nM, NAD+ 1 mM, propionaldehyde 80 μM; read-out: ALDH1A1 IC50
T1 sequence (P00352 1-501): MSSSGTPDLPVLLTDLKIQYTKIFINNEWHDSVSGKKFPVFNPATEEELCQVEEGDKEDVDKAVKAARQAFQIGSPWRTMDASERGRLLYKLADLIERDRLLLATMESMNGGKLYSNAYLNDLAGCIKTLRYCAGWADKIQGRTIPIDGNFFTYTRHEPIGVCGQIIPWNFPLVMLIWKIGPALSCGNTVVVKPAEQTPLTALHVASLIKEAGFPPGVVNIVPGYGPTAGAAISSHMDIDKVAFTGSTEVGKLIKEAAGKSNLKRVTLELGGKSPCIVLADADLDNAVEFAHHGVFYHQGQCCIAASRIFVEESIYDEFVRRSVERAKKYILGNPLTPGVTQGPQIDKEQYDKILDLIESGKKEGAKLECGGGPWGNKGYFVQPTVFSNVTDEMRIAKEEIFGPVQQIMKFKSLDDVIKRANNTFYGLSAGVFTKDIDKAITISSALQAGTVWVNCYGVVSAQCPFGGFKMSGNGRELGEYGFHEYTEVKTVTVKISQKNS
Description: Example 358. ALDH1A1 Enzymatic Assay (In Vitro Assay)
3 μL of ALDH1A1 enzyme (final concentration 20 nM) or assay buffer (100 mM HEPES pH 7.5 with 0.01% Tween 20) were dispensed into a 1,536-well solid-bottom black plate (Greiner Bio One, Monroe, N.C.) followed by pin-tool transfer (23 nL) of candidate inhibitors (final concentration range 968 pM to 57.2 μM) and control (Bay 11-7085, final concentration range 1.31 nM to 2.86 μM). Samples were incubated (RT, protected from light) for 15 minutes followed by a 1 μL substrate addition of NAD^+ and Propionaldehyde (final concentrations of 1 mM and 80 μM, respectively). Plates were centrifuged at 1,000 rpm for 15 seconds, then read in kinetic mode on a ViewLux High-throughput CCD imager (Perkin-Elmer) equipped with standard UV fluorescence optics (340 nm excitation, 450 nm emission) for 10 minutes. The change in fluorescence intensity over the 10-minute reaction period was normalized against no-inhibitor and no-enzyme controls and the resulting percent inhibition data were fitted for biological activity.

[2] = system: MIA PaCa-2 cells; assay: MIA PaCa2 cell-based assay (1,536-well high-content imaging ALDEFLUOR assay); design: species or system human; conditions: Homo sapiens, 0.5 h, ALDEFLUOR BAAA substrate 500 nM, 30 minutes
Procedure, shortened: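 High-content ALDEFLUOR imaging readout: BAA-retaining cells in FITC channel scored against Hoechst-counted nuclei. Before imaging, MIA PaCa-2 cells seeded at 1,000 per well received final 500 nM BAAA and 0.5 nM Hoechst with compounds in 16-point series (1.4 nM to 47.8 μM), 30 min, 37° C.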

**Q.** Which results are given for `CC1(C#N)CCN(c2c(C(=O)N3CCN(S(=O)(=O)N4CCCC4)CC3)cnc3ccc(F)cc23)CC1` [Example 158, 1-(6-fluoro-3-(4-(pyrrolidin-1-ylsulfonyl)piperazine-1-carbonyl)quinolin-4-yl)-4-methylpiperidine-4-carbonitrile]?
**A.** IC50 [1]: 1000 to 10000 nM; IC50 [2]: > 10000 nM

**Q.** How did the IC50 [1] turn out when `CN(C)S(=O)(=O)N1CCN(C(=O)c2cnc3c(F)cc(F)cc3c2N2CCC(C)(C#N)CC2)CC1` [Example 167, 4-(4-(4-cyano-4-methylpiperidin-1-yl)-6,8-difluoroquinoline-3-carbonyl)-N,N-dimethylpiperazine-1-sulfonamide] was run?
**A.** The IC50 was less than 500 nM.

**Q.** And the IC50 [2]?
**A.** The IC50 was less than 500 nM.

**Q.** What does the source list for `COc1ccc2ncc(C(=O)N3CCN(c4cccnc4)CC3)c(N3CCC4(CC3)OCCO4)c2c1` [Example 14, (6-methoxy-4-(1,4-dioxa-8-azaspiro[4.5]decan-8-yl)quinolin-3-yl)(4-(pyridin-3-yl)piperazin-1-yl)methanone, TFA]?
**A.** IC50 [1]: < 500 nM; IC50 [2]: > 10000 nM

**Q.** How did the IC50 [1] turn out when `CNC(=O)C1CCN(C(=O)c2cnc3ccc(F)cc3c2N2CCC(C#N)(c3ccccc3)CC2)CC1` [Cpd. 327, 1-(4-(4-cyano-4-phenylpiperidin-1-yl)-6-fluoroquinoline-3-carbonyl)-N-methylpiperidine-4-carboxamide] was run?
**A.** Its IC50 is less than 500 nM.

**Q.** What about the IC50 [2] of the same compound?
**A.** Its IC50 is less than 500 nM.

**Q.** What does the source list for `COc1ccc2c(N3CCC(C)(C#N)CC3)c(C(=O)N3CCN(C(=O)C4CC4)CC3)cnc2c1` [Example 101, 1-(3-(4-(cyclopropanecarbonyl)piperazine-1-carbonyl)-7-methoxyquinolin-4-yl)-4-methylpiperidine-4-carbonitrile]?
**A.** IC50 [1]: < 500 nM; IC50 [2]: 1000 to 10000 nM

**Q.** Which results are given for `CS(=O)(=O)C1CCN(C(=O)c2cnc3ccc(F)cc3c2-c2ccc(C3(C#N)CC3)cc2)CC1` [Example 266, 1-(4-(6-fluoro-3-(4-(methylsulfonyl)piperidine-1-carbonyl)quinolin-4-yl)phenyl)cyclopropanecarbonitrile]?
**A.** IC50 [1]: < 500 nM; IC50 [2]: < 500 nM

**Q.** `COc1ccc2ncc(C(=O)N3CCC(OC)CC3)c(N3CCC(OC)CC3)c2c1` [Example 4, (6-methoxy-4-(4-methoxypiperidin-1-yl)quinolin-3-yl)(4-methoxypiperidin-1-yl)methanone, TFA] was tested. Which IC50 [1] did it give?
**A.** The IC50 was less than 500 nM.

**Q.** And the IC50 [2]?
**A.** The IC50 was 1000 to 10000 nM.

**Q.** Which results are given for `CNC(=O)C1CCN(C(=O)c2cnc3ccc(F)cc3c2-c2ccc(C3(C#N)CC3)cc2)CC1` [Cpd. 333, 1-(4-(4-(1-cyanocyclopropyl)phenyl)-6-fluoroquinoline-3-carbonyl)-N-methylpiperidine-4-carboxamide]?
**A.** IC50 [1]: < 500 nM; IC50 [2]: < 500 nM

**Q.** With `CCN(CC)C(=O)N1CCN(C(=O)c2cnc3ccc(F)cc3c2N2CCC3(CC2)OCCO3)CC1` [Example 149, N,N-diethyl-4-(6-fluoro-4-(1,4-dioxa-8-azaspiro[4.5]decan-8-yl)quinoline-3-carbonyl)piperazine-1-carboxamide] as the compound, how does the IC50 [1] read?
**A.** Its IC50 is less than 500 nM.

**Q.** And the IC50 [2]?
**A.** The IC50 was 1000 to 10000 nM.

**Q.** With `CCNC(=O)N1CCN(C(=O)c2cnc3cc(OC)c(OC)cc3c2N2CCC3(CC2)OCCO3)CC1` [Example 140, 4-(6,7-dimethoxy-4-(1,4-dioxa-8-azaspiro[4.5]decan-8-yl)quinoline-3-carbonyl)-N-ethylpiperazine-1-carboxamide] as the compound, how does the IC50 [1] read?
**A.** Its IC50 is less than 500 nM.

**Q.** And the IC50 [2]?
**A.** Its IC50 is greater than 10000 nM.

**Q.** For `CCOC(=O)N1CCN(C(=O)c2cnc3cc(OC)ccc3c2N2CCC(C)(C#N)CC2)CC1` [Example 108, Ethyl 4-(4-(4-cyano-4-methylpiperidin-1-yl)-7-methoxyquinoline-3-carbonyl)piperazine-1-carboxylate], which IC50 [1] is on record?
**A.** Its IC50 is less than 500 nM.

**Q.** What about the IC50 [2] of the same compound?
**A.** Its IC50 is 1000 to 10000 nM.

**Q.** For `CN(C)C(=O)N1CCN(C(=O)c2cnc3ccc(Cl)cc3c2N2CCC(C#N)(c3ccccc3)CC2)CC1` [Cpd. 312, 4-(6-chloro-4-(4-cyano-4-phenylpiperidin-1-yl)quinoline-3-carbonyl)-N,N-dimethylpiperazine-1-carboxamide], which IC50 [1] is on record?
**A.** Its IC50 is less than 500 nM.

**Q.** What about the IC50 [2] of the same compound?
**A.** The IC50 was less than 500 nM.

**Q.** Which IC50 [1] does the source give for `CN(C)C(=O)N1CCN(C(=O)c2cnc3ccc(F)cc3c2N2CCC3(CC2)OCCO3)CC1` [Example 179, 4-(6-fluoro-4-(1,4-dioxa-8-azaspiro[4.5]decan-8-yl)quinoline-3-carbonyl)-N,N-dimethylpiperazine-1-carboxamide] here?
**A.** The IC50 was less than 500 nM.

**Q.** And the IC50 [2]?
**A.** The IC50 was 500 to 1000 nM.

**Q.** Which results are given for `Cn1ncc2c(N3CCC(C)(C#N)CC3)c(C(=O)N3CCN(C(=O)C4CC4)CC3)cnc21` [Example 205, 1-(5-(4-(cyclopropanecarbonyl)piperazine-1-carbonyl)-1-methyl-1H-pyrazolo[3,4-b]pyridin-4-yl)-4-methylpiperidine-4-carbonitrile]?
**A.** IC50 [1]: < 500 nM; IC50 [2]: 1000 to 10000 nM

**Q.** What does the source list for `CCN(CC)C(=O)N1CCN(C(=O)c2cnc3ccc(F)cc3c2N2CCC(C)(C#N)CC2)CC1` [Example 154, 4-(4-(4-cyano-4-methylpiperidin-1-yl)-6-fluoroquinoline-3-carbonyl)-N,N-diethylpiperazine-1-carboxamide]?
**A.** IC50 [1]: < 500 nM; IC50 [2]: 1000 to 10000 nM

**Q.** How did the IC50 [1] turn out when `COc1c(F)cc2c(N3CCC(C)(C#N)CC3)c(C(=O)N3CCN(C(=O)C4CC4)CC3)cnc2c1F` [Example 127, 1-(3-(4-(cyclopropanecarbonyl)piperazine-1-carbonyl)-6,8-difluoro-7-methoxyquinolin-4-yl)-4-methylpiperidine-4-carbonitrile] was run?
**A.** Its IC50 is less than 500 nM.

**Q.** What about the IC50 [2] of the same compound?
**A.** Its IC50 is 1000 to 10000 nM.

**Q.** What does the source list for `CCNC(=O)N1CCN(C(=O)c2cnc3c(F)c(F)c(F)cc3c2N2CCC3(CC2)OCCO3)CC1` [Example 144, N-ethyl-4-(6,7,8-trifluoro-4-(1,4-dioxa-8-azaspiro[4.5]decan-8-yl)quinoline-3-carbonyl)piperazine-1-carboxamide]?
**A.** IC50 [1]: < 500 nM; IC50 [2]: 1000 to 10000 nM

**Q.** Which results are given for `N#CC1(c2ccc(-c3c(C(=O)Nc4cnn(CCO)c4)cnc4ccc(F)cc34)cc2)CC1` [Cpd. 343, 4-(4-(1-cyanocyclopropyl)phenyl)-6-fluoro-N-(1-(2-hydroxyethyl)-1H-pyrazol-4-yl)quinoline-3-carboxamide]?
**A.** IC50 [1]: < 500 nM; IC50 [2]: < 500 nM

**Q.** `CC(C)NC(=O)N1CCN(C(=O)c2cnc3ccc(F)cc3c2N2CCC(C)(C#N)CC2)CC1` [Example 90, 4-(4-(4-cyano-4-methylpiperidin-1-yl)-6-fluoroquinoline-3-carbonyl)-N-isopropylpiperazine-1-carboxamide] was tested. Which IC50 [1] did it give?
**A.** The IC50 was 1000 to 10000 nM.

**Q.** What about the IC50 [2] of the same compound?
**A.** Its IC50 is greater than 10000 nM.

**Q.** Which IC50 [1] does the source give for `CN(C)S(=O)(=O)N1CCN(C(=O)c2cnc3cc(F)c(F)cc3c2N2CCC3(CC2)OCCO3)CC1` [Example 172, 4-(6,7-difluoro-4-(1,4-dioxa-8-azaspiro[4.5]decan-8-yl)quinoline-3-carbonyl)-N,N-dimethylpiperazine-1-sulfonamide] here?
**A.** The IC50 was less than 500 nM.

**Q.** And the IC50 [2]?
**A.** The IC50 was 500 to 1000 nM.

**Q.** What does the source list for `CS(=O)(=O)N1CCN(C(=O)c2cnc3ccc(F)cc3c2N2CCC3(CCOC3=O)CC2)CC1` [Example 249, 8-(6-fluoro-3-(4-(methylsulfonyl)piperazine-1-carbonyl)quinolin-4-yl)-2-oxa-8-azaspiro[4.5]decan-1-one]?
**A.** IC50 [1]: < 500 nM; IC50 [2]: 1000 to 10000 nM

**Q.** For `CS(=O)(=O)N1CCN(C(=O)c2cnc3ccc(F)cc3c2N2CCN(C(=O)/C(C#N)=C/C3CC3)CC2)CC1` [Example 222, (e)-3-cyclopropyl-2-(4-(6-fluoro-3-(4-(methylsulfonyl)piperazine-1-carbonyl)quinolin-4-yl)piperazine-1-carbonyl)acrylonitrile], which IC50 [1] is on record?
**A.** The IC50 was less than 500 nM.

**Q.** What about the IC50 [2] of the same compound?
**A.** The IC50 was greater than 10000 nM.

**Q.** With `CC(C)C1CCN(c2c(C(=O)N3CCN(C(=O)C4CC4)CC3)cnc3ccc(F)cc23)CC1` [Example 74, (4-(cyclopropanecarbonyl)piperazin-1-yl)(6-fluoro-4-(4-isopropylpiperidin-1-yl)quinolin-3-yl)methanone] as the compound, how does the IC50 [1] read?
**A.** The IC50 was less than 500 nM.

**Q.** What about the IC50 [2] of the same compound?
**A.** Its IC50 is 1000 to 10000 nM.

**Q.** `C[C@@H]1CN(C(=O)c2cnc3ccc(F)cc3c2N2CCC3(CC2)OCCO3)C[C@H](C)O1` [Example 55, ((2S*,6R*)-2,6-dimethylmorpholino)(6-fluoro-4-(1,4-dioxa-8-azaspiro[4.5]decan-8-yl)quinolin-3-yl)methanone] was tested. Which IC50 [1] did it give?
**A.** The IC50 was 1000 to 10000 nM.

**Q.** What about the IC50 [2] of the same compound?
**A.** Its IC50 is greater than 10000 nM.

**Q.** With `CS(=O)(=O)C1CCN(C(=O)c2cnc3cc(F)c(F)cc3c2N2CCC3(CC2)OCCO3)CC1` [Example 187, (6,7-difluoro-4-(1,4-dioxa-8-azaspiro[4.5]decan-8-yl)quinolin-3-yl)(4-(methylsulfonyl)piperidin-1-yl)methanone] as the compound, how does the IC50 [1] read?
**A.** Its IC50 is less than 500 nM.

**Q.** And the IC50 [2]?
**A.** The IC50 was 1000 to 10000 nM.
